Key:
Assay type in all cases: in vivo
Settings in all cases: foliar, compared to untreated control leaf disks, read-out: disease control
[1] = system: Puccinia recondita f. sp. tritici; experiment: Puccinia recondita f. sp. tritici / wheat / leaf disc preventative (brown rust)
Excerpt: Puccinia recondita f. sp. tritici/Wheat/Leaf Disc Preventative (Brown Rust) Wheat leaf segments cv. Kanzler were placed on agar in multiwell plates (24-well format) and sprayed with the formulated test compound diluted in water. The leaf disks were inoculated with a spore suspension of the fungus 1 day after application.

[2] = system: Blumeria graminis f. sp. tritici (Erysiphe graminis f. sp. tritici); experiment: Blumeria graminis f. sp. tritici / wheat / leaf disc preventative (powdery mildew on wheat)
Description: Blumeria graminis f. sp. tritici (Erysiphe graminis f. sp. tritici)/Wheat/Leaf Disc Preventative (Powdery Mildew on Wheat)
Wheat leaf segments cv. Kanzler were placed on agar in a multiwell plate (24-well format) and sprayed with the formulated test compound diluted in water. The leaf disks were inoculated by shaking powdery mildew infected plants above the test plates 1 day after application. The inoculated leaf disks were incubated at 20° C. and 60% rh under a light regime of 24 h darkness followed by 12 h light/12 h darkness in a climate chamber and the activity of a compound was assessed as percent disease control compared to untreated when an appropriate level of disease damage appears on untreated check leaf segments (6-8 days after application).
The following compounds gave at 200 ppm give at least 50% disease control in this test when compared to untreated control leaf disks under the same conditions, which show extensive disease development: […]

[3] = system: Puccinia recondita f. sp. tritici; experiment: Puccinia recondita f. sp. tritici / wheat / leaf disc curative (brown rust)
Description: Puccinia recondita f. sp. tritici/Wheat/Leaf Disc Curative (Brown Rust) Wheat leaf segments cv. Kanzler are placed on agar in multiwell plates (24-well format). The leaf segments are inoculated with a spore suspension of the fungus. Plates were stored in darkness at 19° C. and 75% rh. The formulated test compound diluted in water was applied 1 day after inoculation.

Measured: pest or weed control at 200 ppm

CCN(C)/C=N/c1cc(Br)c(OC(C)c2ccccc2C#N)nc1C (stereo not drawn) [Q.305]
≥ 50%: all assays above

CCCc1ccccc1C(C)Oc1nc(C)c(/N=C/N(C)CC)cc1Br (stereo not drawn) [Q.287]
≥ 50%: all assays above

CCN(C)/C=N/c1cc(Br)c(OCc2ccccc2OC)nc1C [Q.330]
≥ 50%: all assays above

CCN(C)/C=N/c1cc(Br)c(OCc2ccccc2C#Cc2ccccc2)nc1C [Q.310]
≥ 50%: all assays above

CCN(C)/C=N/c1cc(Br)c(OCc2ccccc2C)nc1Br [Q.397]
≥ 50%: all assays above

CCN(C)/C=N/c1cc(Br)c(OC(C)c2ccccc2C(F)F)nc1C (stereo not drawn) [Q.290]
≥ 50%: all assays above

C/C=C/CCCCOc1nc(C)c(/N=C/N(C)CC)cc1Br [Q.132]
≥ 50%: all assays above

CCN(C)/C=N/c1cc(Br)c(OCc2ccccc2C)nc1C1CC1 [Q.401]
≥ 50%: all assays above

CCN(C)/C=N/c1ccc(OC(C)c2cc(OC)cc(OC)c2)nc1C (stereo not drawn) [Q.373]
≥ 50%: all assays above

CCN(C)/C=N/c1cc(Br)c(OCc2cc(-c3ccccc3)no2)nc1C [Q.073]
≥ 50%: all assays above

CCN(C)/C=N/c1cc(Br)c(OCc2ccc(F)c(C)c2)nc1C [Q.323]
≥ 50%: all assays above

CCN(C)/C=N/c1cc(Br)c(OC(C)c2cc(Cl)cc(Cl)c2)nc1C (stereo not drawn) [Q.205]
≥ 50%: all assays above

CCN(C)/C=N/c1cc(-c2ccsc2)c(OC(C)c2cc(F)cc(F)c2)nc1C (stereo not drawn) [Q.265]
≥ 50%: all assays above

CCN(C)/C=N/c1cc(Br)c(OCc2ccc3c(c2)CCCC3)nc1C [Q.319]
≥ 50%: all assays above

CCN(C)/C=N/c1ccc(OC(C)c2cc(F)cc(F)c2)nc1C (stereo not drawn) [Q.181]
≥ 50%: all assays above

CCN(C)/C=N/c1cc(Br)c(OCc2snc(-c3ccccc3)c2Cl)nc1C [Q.109]
≥ 50%: all assays above

C/C=C/C(C)Oc1nc(C)c(/N=C/N(C)CC)cc1Br (stereo not drawn) [Q.331]
≥ 50%: all assays above

CCN(C)/C=N/c1ccc(OCc2cc(C)cc(C)c2)nc1C [Q.296]
≥ 50%: all assays above

CCN(C)/C=N/c1ccc(OC2CCCCC2C)nc1C (stereo not drawn) [Q.341]
≥ 50%: all assays above

CCN(C)/C=N/c1cc(Br)c(OC(C)(C)c2cc(-c3ccccc3)no2)nc1C [Q.077]
≥ 50%: all assays above

CCN(C)/C=N/c1cc(Br)c(OCc2snc(C(C)C)c2C#N)nc1C [Q.156]
≥ 50%: all assays above

CCN(C)/C=N/c1ccc(O[C@H]2CC[C@@H](CC)CC2)nc1C [Q.381]
≥ 50%: all assays above

Cc1nc(OC2CCCCC2C)ccc1/N=C/N(C)C(C)C (stereo not drawn) [Q.342]
≥ 50%: all assays above

CCN(C)/C=N/c1cc(Br)c(OCc2ccccc2CCc2ccccc2)nc1C [Q.309]
≥ 50%: all assays above

CCN(C)/C=N/c1cc(Br)c(OC2CCC(=O)CC2C)nc1C (single isomer, unassigned) [Q.332]
≥ 50%: all assays above

CCN(C)/C=N/c1cc(Br)c(OCc2ccccc2-c2ccccc2)nc1C [Q.294]
≥ 50%: all assays above

CCN(C)/C=N/c1cc(Br)c(OCC(F)F)nc1C [Q.383]
≥ 50%: all assays above

CCN(C)/C=N/c1cc(Br)c(OC(C)CC[Si](C)(C)C)nc1C (stereo not drawn) [Q.273]
≥ 50%: all assays above

Cc1cc(C)cc(C(C)Oc2ccc(/N=C/N(C)C(C)C)c(C)n2)c1 (stereo not drawn) [Q.360]
≥ 50%: all assays above

CCN(C)/C=N/c1cc(Br)c(OCCCC(CCl)OC=O)nc1C (stereo not drawn) [Q.060]
≥ 50%: all assays above

CCN(C)/C=N/c1cc(Br)c(OCc2cc(F)c(F)c(F)c2)nc1C [Q.317]
≥ 50%: all assays above

CCN(C)/C=N/c1ccc(OCc2ccccc2OC)nc1C [Q.367]
≥ 50%: all assays above

CCC(Oc1ccc(/N=C/N(C)CC)c(C)n1)c1ccccc1 (stereo not drawn) [Q.347]
≥ 50%: all assays above

CCN(C)/C=N/c1cc(Br)c(OCc2ccccc2C(C)C)nc1C [Q.306]
≥ 50%: all assays above

CCN(C)/C=N/c1cc(Br)c(OCCCC2CC2)nc1C [Q.356]
≥ 50%: all assays above

CCN(C)/C=N/c1cc(Br)c(OC2CCC(=O)CC2)nc1C [Q.031]
≥ 50%: all assays above

CCN(C)/C=N/c1cc(Br)c(OCc2cc(C(F)(F)F)cc(C(F)(F)F)c2)nc1C [Q.152]
≥ 50%: all assays above

CCN(C)/C=N/c1cc(Br)c(OCc2ccc(C)nc2)nc1C [Q.130]
≥ 50%: all assays above

CCN(C)/C=N/c1cc(Br)c(OCCCCc2ccc(Cl)cc2)nc1C [Q.045]
≥ 50%: all assays above

CCN(C)/C=N/c1cc(Br)c(OC(C)c2ccccc2C)nc1C (stereo not drawn) [Q.321]
≥ 50%: all assays above

CCN(C)/C=N/c1cc(Br)c(OCC(C)F)nc1C (stereo not drawn) [Q.384]
≥ 50%: all assays above

CCC(Oc1nc(C)c(/N=C/N(C)CC)cc1Br)c1cc(F)cc(F)c1 (stereo not drawn) [Q.327]
≥ 50%: all assays above

CCN(C)/C=N/c1cc(Br)c(OC2CCC3(CC2)NC(=O)NC3=O)nc1C (stereo not drawn) [Q.072]
≥ 50%: all assays above

CCN(C)/C=N/c1cc(Br)c(OC2CCCCCC2)nc1C [Q.171]
≥ 50%: all assays above

CCN(C)/C=N/c1cc(Br)c(OCc2cccc(N(C)C)c2)nc1C [Q.177]
≥ 50%: all assays above

CCN(C)/C=N/c1cc(Br)c(OC(C)c2cc(F)c(F)c(F)c2)nc1C (stereo not drawn) [Q.318]
≥ 50%: all assays above

CCN(C)/C=N/c1cc(C)c(O[C@H]2CC[C@H](C(C)C)CC2)nc1C [Q.185]
≥ 50%: all assays above

CCCN/C=N/c1cc(Br)c(OCCCC(C)C)nc1C [Q.010]
≥ 50%: all assays above

CCN(C)/C=N/c1cc(Br)c(OC2CCC(O)CC2)nc1C (stereo not drawn) [Q.213]
≥ 50%: all assays above
